Measured values taken from PMC11800497, “Antifungal activity and biocompatibility assessment with molecular docking and dynamic simulations of new pyrazole derivatives” (BMC Biotechnology, 2025).
Converted amounts (≈) assume the structure as drawn. “Also recorded” adds a separate entry of the source. Marks after values point to notes of the source that are not given here.

How the values were obtained:
[1] = Biocompatibility, MTT assay; type: cell-based, human; details: human, HFB4 normal human skin cells
Procedure: (§1) A complete monolayer sheet was created by incubating the 96-well tissue culture plate at 37 °C for 24 h following inoculation with 1 × 10^5 cells/ml (100 µl/well), following the procedure described by. Following the establishment of a confluent sheet of cells, the growth material was collected from the 96-well micro titer plates, and the cell monolayer underwent two washing media washes. […] They then evaluated 0.1 ml of each dilution in several wells. We looked at the cells for physical signs of toxicity, including granulation, rounding, shrinkage, and partial or complete loss of the monolayer. Following the phosphate buffer solution’s preparation, each well received 20 µl of a 5 mg/ml MTT (3-(4,5-dimethylthiazol-2-yl-)-2,5 diphenyltetrazolium bromide) solution from Bio Basic Canada Inc. After that, place it on a shaking table and shake it for five minutes at 150 rpm to completely integrate the MTT. to allow MTT to metabolize, followed by incubation for 4 h at 37 °C with 5% CO2. Media was taken out if necessary, and paper towels were used to wipe out any remaining material from the plate. One may re-dissolve formazan, a metabolic product of MTT, in 200 µL of DMSO. Put on a shaking table and shaken for five minutes at 150 rpm to fully mix the formazan and solvent. At 560 nm, optical density was measured, and at 620 nm, background was subtracted. There should be a direct relationship between optical density and cell number.3 [drawing 3]

[2] = system: HFB4 normal human skin cell line; assay: Biocompatibility, MTT assay; type: cell-based
Procedure: as §1

[3] = system: P. chrysogenum ATCC 10106; assay: Well-diffusion antifungal activity; type: cell-based, Penicillium chrysogenum; details: 1000 µg/ml; for zone of inhibition at 1000 µg/mL: Penicillium chrysogenum, ATCC10106, 72 h, 28 °C, read-out: IZD
Procedure: (§2) This study investigated strains of four distinct fungal pathogens: Aspergillus flavus ATCC 9643, A. niger ATCC 11414, Rhizopus oryzae ATCC 96382, and Penicillium chrysogenum ATCC 10106. Every strain was acquired from the Dep. of Micro. Fac. Agric., […] Uni., in Egypt. Initially kept and preserved in malt agar medium at 4 °C, the pathogens were then grown overnight at 28 °C in malt broth medium to evaluate the antifungal activity. Fungal pathogen standard inoculum was prepared by following the procedure described by. To assess the antifungal activity, the pathogens were first maintained and stored at 4 °C in malt agar medium. They were then cultured in malt broth medium for a whole night at 28 °C. According to [22], the well-diffusion technique was used to test the antifungal activity. This included using a 9.0 mm cork borer that had been sterilized to create wells in the malt agar layer. […] After adding 1000 μg/ml of control pyrazole compounds and the standard antifungal (Fluconazole 1000 μg/ml) to each well, the petri dishes were incubated at 28 °C for 72 h. The diameter of the standard reference antifungal was compared to the millimeters measurements of the inhibitory zones. The formula according to [22] was utilized to compute the activity index (AI).1 [drawing 1]

A. flavus ATCC 9643 [4] = assay: Minimal lethal fungal concentration (MLFC); type: cell-based, Aspergillus flavus; set-up: key to Growth in MLFC test: -: No detected growth; +: Growth observed
Procedure: (§3) The term “minimal lethal fungal concentration” (MLFC) refers to the lowest concentration of an antifungal drug that may […]. The fungus was initially subjected to different concentrations of the pyrazole compounds in order to ascertain this concentration. After that, the growth from the MIFC stage was moved to regular malt agar plates. After that, these plates are incubated for 72 h at 28 °C. After then, any growth—or lack thereof—is noted and studied.
(§4) Following the acquisition of the MFIC and MLFC records, the ratio was computed. The fungicidal activity of a pyrazole compound is defined as a ratio […].

[5] = system: A. niger ATCC 11414 and A. flavus ATCC 9643; assay: Activity spectrum in MFIC/MLFC tests (share of strains inhibited); type: cell-based, Aspergillus niger, Aspergillus flavus
Procedure: (§5) In diagnostic laboratories, minimum inhibitory concentrations (MICs) are essential for confirming fungal resistance to an antifungal drug and monitoring the effectiveness of new antifungal medicines. MICs were computed in accordance with the recommendations established by the National Committee for Clinical Laboratory Standards (CLS). In dimethyl sulfoxide (DMSO), pyrazoles were serially diluted twice (1/2, 1/4, and 1/8) and heated at 70 °C for 10 min to get final concentrations of 1000–125 μg/ml, respectively. After that, these dilutions were put into wells that had already been created on plates with fungal infestations. Using a calibrated micropipette, fungus spore suspensions were prepared and added to malt agar welled plates then incubated for 72 h at 28 °C.
as §3

A. niger ATCC 11414 [6] = assay: Minimal fungal inhibitory concentration (MFIC); type: cell-based, Aspergillus niger; set-up: key to Growth in MFIC test: -: No detected growth; +: Growth observed; details: 72 h, 28 °C
Procedure: as §5

R. oryzae ATCC 96382 = assay: Well-diffusion antifungal activity; type: cell-based, Rhizopus oryzae; details: Rhizopus arrhizus, ATCC96382; 1000 µg/ml, 72 h, 28 °C; read-out: IZD
Procedure: as §2

A. niger ATCC 11414 [7] = assay: Minimal lethal fungal concentration (MLFC); type: cell-based, Aspergillus niger; set-up: key to Growth in MLFC test: -: No detected growth; +: Growth observed
Procedure: as §3, §4

A. flavus ATCC 9643 [8] = assay: Minimal fungal inhibitory concentration (MFIC); type: cell-based, Aspergillus flavus; set-up: key to Growth in MFIC test: -: No detected growth; +: Growth observed; details: 72 h, 28 °C
Procedure: as §5

A. flavus ATCC 9643 [9] = assay: Well-diffusion antifungal activity; type: cell-based, Aspergillus flavus; details: 1000 µg/ml; for zone of inhibition at 1000 µg/mL: Aspergillus flavus, ATCC9643, read-out: IZD
Procedure: as §2

A. niger ATCC 11414 [10] = assay: Well-diffusion antifungal activity; type: cell-based, Aspergillus niger; details: 1000 µg/ml, 72 h, 28 °C; for zone of inhibition at 1000 µg/mL: Aspergillus niger, ATCC11414, read-out: IZD
Procedure: This study investigated strains of four distinct fungal pathogens: Aspergillus flavus ATCC 9643, A. niger ATCC 11414, Rhizopus oryzae ATCC 96382, and Penicillium chrysogenum ATCC 10106. Every strain was acquired from the Dep. of Micro. Fac. Agric., […] Uni., in Egypt. Initially kept and preserved in malt agar medium at 4 °C, the pathogens were then grown overnight at 28 °C in malt broth medium to evaluate the antifungal activity. Fungal pathogen standard inoculum was prepared by following the procedure described by [19, 20]. To assess the antifungal activity, the pathogens were first maintained and stored at 4 °C in malt agar medium. They were then cultured in malt broth medium for a whole night at 28 °C. According to [22], the well-diffusion technique was used to test the antifungal activity. This included using a 9.0 mm cork borer that had been sterilized to create wells in the malt agar layer. […] After adding 1000 μg/ml of control pyrazole compounds and the standard antifungal (Fluconazole 1000 μg/ml) to each well, the petri dishes were incubated at 28 °C for 72 h. The diameter of the standard reference antifungal was compared to the millimeters measurements of the inhibitory zones. The formula according to [22] was utilized to compute the activity index (AI).1 [drawing 1]

A. fumigatus = system: A. fumigatus; set-up: method as in PMID 31926784; details: cited from earlier work
A. niger = system: A. niger; set-up: method as in PMID 31926784; details: cited from earlier work
A. flavus = system: A. flavus; set-up: method as in PMID 31926784; details: cited from earlier work
[11] = relative to Fluconazole 1000 µg/ml

COc1ccc(NC(=O)/C(C#N)=C/c2cn(-c3ccccc3)nc2-c2ccccc2)cc1 [3b]
viability at 31.25 µg/ml ([1]; 31.25 µg/ml): 99.9%
viability at 62.5 µg/ml ([1]; 62.5 µg/ml): 99.8%
viability at 125 µg/ml ([1]; 125 µg/ml): 99.9%
viability at 250 µg/ml ([1]; 250 µg/ml): 99.8%
viability at 500 µg/ml ([1]; 500 µg/ml): 99.6%
viability at 1000 µg/ml ([1]; 1000 µg/ml): 99.2%
Toxicity % ([2]; 31.25 µg/ml): 0.177%
Toxicity % ([2]; 62.5 µg/ml): 0.118%
Toxicity % ([2]; 125 µg/ml): 0.118%
Toxicity % ([2]; 250 µg/ml): 0.236%
Toxicity % ([2]; 500 µg/ml): 0.354%
Toxicity % ([2]; 1000 µg/ml): 0.767%
Changes of HFB4 cells ([2]; concentrations 31.25–1000 µg/ml): no significant changes
IC50 (cytotoxicity) ([2]; tested up to 1000 µg/ml): no IC50 dose obtained; also recorded: no IC50 dose was determined
AI (activity index) [3, 11]: 0.87
zone of inhibition at 1000 µg/mL [3]: 20 ± 0.11 mm
Antifungal effect (ratio of MLFC and MFIC) (A. flavus ATCC 9643 [4]): 2
Growth in MLFC test (A. flavus ATCC 9643 [4]; 125 µg/ml, 72 h, 28 °C): +
Growth in MLFC test (A. flavus ATCC 9643 [4]; 250 µg/ml, 72 h, 28 °C): +
Growth in MLFC test (A. flavus ATCC 9643 [4]; 500 µg/ml, 72 h, 28 °C): -
Growth in MLFC test (A. flavus ATCC 9643 [4]; 1000 µg/ml, 72 h, 28 °C): -
Dose of MLFC (A. flavus ATCC 9643 [4]; 72 h, 28 °C): 500 µg/mL
Activity spectrum (MLFC) ([5]; 125 µg/ml): 0/2 (0%)
Activity spectrum (MLFC) ([5]; 250 µg/ml): 0/2 (0%)
Activity spectrum (MLFC) ([5]; 500 µg/ml): 2/2 (100%)
Activity spectrum (MLFC) ([5]; 1000 µg/ml): 2/2 (100%)
Growth in MFIC test (A. niger ATCC 11414 [6]; 125 µg/ml): +
Growth in MFIC test (A. niger ATCC 11414 [6]; 250 µg/ml): -
Growth in MFIC test (A. niger ATCC 11414 [6]; 500 µg/ml): -
Growth in MFIC test (A. niger ATCC 11414 [6]; 1000 µg/ml): -
Dose of MFIC (A. niger ATCC 11414 [6]): 250 µg/mL
zone of inhibition at 1000 µg/mL (R. oryzae ATCC 96382): 0 mm
Antifungal effect (ratio of MLFC and MFIC) (A. niger ATCC 11414 [7]): 2
Growth in MLFC test (A. niger ATCC 11414 [7]; 125 µg/ml, 72 h, 28 °C): +
Growth in MLFC test (A. niger ATCC 11414 [7]; 250 µg/ml, 72 h, 28 °C): +
Growth in MLFC test (A. niger ATCC 11414 [7]; 500 µg/ml, 72 h, 28 °C): -
Growth in MLFC test (A. niger ATCC 11414 [7]; 1000 µg/ml, 72 h, 28 °C): -
Dose of MLFC (A. niger ATCC 11414 [7]; 72 h, 28 °C): 500 µg/mL
Growth in MFIC test (A. flavus ATCC 9643 [8]; 125 µg/ml): +
Growth in MFIC test (A. flavus ATCC 9643 [8]; 250 µg/ml): -
Growth in MFIC test (A. flavus ATCC 9643 [8]; 500 µg/ml): -
Growth in MFIC test (A. flavus ATCC 9643 [8]; 1000 µg/ml): -
Dose of MFIC (A. flavus ATCC 9643 [8]): 250 µg/mL
IZD (A. flavus ATCC 9643 [9]; 72 h, 28 °C): 30 ± 0.13^b mm
AI (activity index) (A. flavus ATCC 9643 [9]; [11]): 1.0
zone of inhibition at 1000 µg/mL (A. flavus ATCC 9643 [9]; 72 h, 28 °C): 30 mm
IZD (A. niger ATCC 11414 [10]): 32 ± 0.14^a mm
zone of inhibition at 1000 µg/mL (A. niger ATCC 11414 [10]): 32 mm

O=C1c2c(Br)c(Br)c(Br)c(Br)c2C(=O)N1N=Cc1cn(-c2ccccc2)nc1-c1ccccc1 [compound 6, 4,5,6,7-tetrabromo-2-(((1,3-diphenyl-1H-pyrazol-4-yl)methylene)amino)isoindoline-1,3-dione]
zone of inhibition at 1000 µg/mL [3]: 0 mm
minimum inhibitory concentration (A. fumigatus): 250 µg/mL (≈ 353 µM)
zone of inhibition at 1000 µg/mL (R. oryzae ATCC 96382): 0 mm
minimum inhibitory concentration (A. niger): 250 µg/mL (≈ 353 µM)
minimum inhibitory concentration (A. flavus): 250 µg/mL (≈ 353 µM)
zone of inhibition at 1000 µg/mL (A. flavus ATCC 9643 [9]; 72 h, 28 °C): 0 mm
zone of inhibition at 1000 µg/mL (A. niger ATCC 11414 [10]): 0 mm
